Measurements: US9604946B2, “Methods for modulating bacterial virulence and related compounds” (priority 2013, dated 2017)

Key:
S. Typhimurium = S. Typhimurium replication in J774 macrophages with and without compound; type: cell-based; conditions: 500 and 5 nM compound
Description: Compounds CF325, CF326, CF327, CF329, CF330, CF331, CF332, CF333, CF334, CF338, CF339, CF340, CF341, CF342, CF343, CF344, CF345, CF349, CF350, CF351, and CF352 were screened by measuring the inhibition of S. Typhimurium replication in the presence (500 and 5 nM) and absence of the compound with J774 macrophage or using a qRT PCR study comparing the levels of gene expression in the presence of 5 and 500 nM concentrations of the target compound. Compounds CF331, CF338, CF340, CF341 and CF345 were also screened using a fluorescein actin staining test to determine the number of HeLa cells infected by measuring the inhibition of AE lesion formation.

EHEC = assay: qRT-PCR of gene expression in EHEC as change from wild-type expression; type: cell-based, enterohemorrhagic E. coli; conditions: 5 and 500 nM compound
QseC = QseC (Escherichia coli O157:H7, UniProt Q8X524); conditions: earlier work, U.S. Pat. No. 8,252,841; Clarke et al., 2006; Rasko et al., 2008; cited from earlier work
A. baumannii = assay: Biofilm formation by A. baumannii; type: cell-based, Acinetobacter baumannii; conditions: acts through QseC

QseC, sequence (Q8X524 whole entry): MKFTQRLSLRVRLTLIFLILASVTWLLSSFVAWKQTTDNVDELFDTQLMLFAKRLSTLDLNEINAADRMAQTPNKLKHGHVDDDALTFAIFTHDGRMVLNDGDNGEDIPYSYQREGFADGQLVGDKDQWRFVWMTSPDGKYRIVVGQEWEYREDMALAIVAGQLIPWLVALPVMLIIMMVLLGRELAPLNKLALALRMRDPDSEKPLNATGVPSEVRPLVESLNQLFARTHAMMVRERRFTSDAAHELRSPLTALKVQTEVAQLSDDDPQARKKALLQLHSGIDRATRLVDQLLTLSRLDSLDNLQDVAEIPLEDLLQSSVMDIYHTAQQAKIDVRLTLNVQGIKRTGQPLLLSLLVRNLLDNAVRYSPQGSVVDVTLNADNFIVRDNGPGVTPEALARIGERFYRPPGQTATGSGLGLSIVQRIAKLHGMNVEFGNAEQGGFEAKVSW

Row | SMILES | modulation of S. Typhimurium virulence (intra J774 macrophage replication) (S. Typhimurium) | activity on virulence of EHEC (gene expression level by qRT-PCR) (EHEC) | further results
1 | O=C(Nc1nccs1)c1c(F)cc(F)cc1F [CF325] | showed potency in preventing S. Typhimurium virulence | – | –
2 | COc1ccc(C(=O)Nc2nccs2)c(OC)c1 [CF326] | showed potency in preventing S. Typhimurium virulence | antagonist activity against the virulence of EHEC | –
3 | CC(=O)Nc1nccs1 [CF327] | showed little modulation of the virulence of S. Typhimurium | acted as agonist of virulence | –
4 | COc1ccc(C(=O)Nc2nc(-c3ccc(C)cc3)cs2)c(OC)c1 [CF329] | showed little modulation of the virulence of S. Typhimurium | antagonist activity against the virulence of EHEC | –
5 | COc1ccc(C(=O)Nc2ncc[nH]2)c(OC)c1 [CF330] | – | acted as agonist of virulence | –
6 | O=C(Nc1nccs1)C12CC3CC(CC(C3)C1)C2 [CF331] | – | antagonist activity against the virulence of EHEC | rank of modulation of bacterial virulence among the EHEC antagonist compounds (EHEC): greatest modulation of bacterial virulence
7 | COc1cccc(OC)c1C(=O)Nc1nccs1 [CF332] | showed little modulation of the virulence of S. Typhimurium | – | –
8 | COc1ccc(C(=O)Nc2nc(C)c(C)s2)c(OC)c1 [CF333] | – | antagonist activity against the virulence of EHEC | –
9 | O=C(Nc1nccs1)c1c(Cl)cc(Cl)cc1Cl [CF334] | – | acted as agonist of virulence | –
10 | CC12CC3CC(C)(C1)CC(C(=O)Nc1nccs1)(C3)C2 [CF345] | – | antagonist activity against the virulence of EHEC | rank of modulation of bacterial virulence among the EHEC antagonist compounds (EHEC): greatest modulation of bacterial virulence
11 | CC12CC3CC(C)(C1)CC(C(=O)Nc1ncco1)(C3)C2 [CF349] | – | acted as agonist of virulence | –
12 | CCOC(=O)c1csc(NC(=O)C23CC4CC(C)(CC(C)(C4)C2)C3)n1 [CF351] | – | acted as agonist of virulence | –
13 | CC12CC3CC(C)(C1)CC(C(=O)Nc1nc(C#N)cs1)(C3)C2 [CF352] | – | antagonist activity against the virulence of EHEC | –
14 | CC12CC3CC(C)(C1)CC(C(=O)Nc1ncc(F)s1)(C3)C2 [CF354] | – | antagonist activity against the virulence of EHEC | –
15 | O=S(=O)(Nc1ccccc1)c1ccc(NC(=S)Nc2ccccc2)cc1 [LED209] | – | – | block of QseC response to the signal (QseC): can block the QseC response to the signal
16 | Cc1ccc(N(CC2=NCCN2)c2cccc(O)c2)cc1 [phentolamine] | – | – | inhibition of biofilm formation (A. baumannii): inhibited; block of QseC response to the signal (QseC): block this response
